# Legend:
# Test in all cases: selective drug sensitivity score (sDSS, relative to normal bone marrow) (sDSS (score)); higher = more potent and effective on the cell line relative to normal bone marrow cells
# Settings in all cases: 72 h
# 380 = tested on: 380
# 697 = tested on: 697
# ALL-SIL = tested on: ALL-SIL
# CCRF-CEM = tested on: CCRF-CEM
# COG-LL-319h = tested on: COG-LL-319h
# COG-LL-332h = tested on: COG-LL-332h
# HAL-01 = tested on: HAL-01
# HPB-ALL = tested on: HPB-ALL
# JURKAT = tested on: JURKAT
# KARPAS-45 = tested on: KARPAS-45
# KASUMI-10 = tested on: KASUMI-10
# KASUMI-2 = tested on: KASUMI-2
# KOPN-8 = tested on: KOPN-8
# MHH-CALL-2 = tested on: MHH-CALL-2
# MHH-CALL-4 = tested on: MHH-CALL-4
# MOLT-14 = tested on: MOLT-14
# NALL-1 = tested on: NALL-1
# NALM-6 = tested on: NALM-6
# P12-ICHIKAWA = tested on: P12-ICHIKAWA
# PF-382 = tested on: PF-382
# 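Further: ALL cell lines in 384-well plates, five doses spanning 10,000-fold, each plate scaled between vehicle and 100 µmol/L benzalkonium chloride controls, sDSS an adapted area-under-curve metric.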
smiles,measurement,setting,value
CC[C@@H]1C(=O)N(C)c2cnc(Nc3ccc(C(=O)N[C@H]4CC[C@H](N5CCN(CC6CC6)CC5)CC4)cc3OC)nc2N1C(C)C [Volasertib] (top concentration 1000 nM),selective drug sensitivity score,380,15
same,selective drug sensitivity score,697,12.1
same,selective drug sensitivity score,ALL-SIL,12.7
same,selective drug sensitivity score,CCRF-CEM,13.8
same,selective drug sensitivity score,COG-LL-319h,14.9
same,selective drug sensitivity score,COG-LL-332h,12
same,selective drug sensitivity score,HAL-01,5.8
same,selective drug sensitivity score,HPB-ALL,15.5
same,selective drug sensitivity score,JURKAT,11.7
same,selective drug sensitivity score,KARPAS-45,19
same,selective drug sensitivity score,KASUMI-10,8
same,selective drug sensitivity score,KASUMI-2,5.7
same,selective drug sensitivity score,KOPN-8,12.4
same,selective drug sensitivity score,MHH-CALL-2,10.6
same,selective drug sensitivity score,MHH-CALL-4,0.9
same,selective drug sensitivity score,MOLT-14,13.4
same,selective drug sensitivity score,NALL-1,12.3
same,selective drug sensitivity score,NALM-6,11.9
same,selective drug sensitivity score,P12-ICHIKAWA,11.5
same,selective drug sensitivity score,PF-382,13.6
CN(C)Cc1ccc(S(=O)(=O)n2ccc(/C=C/C(=O)NO)c2)cc1 [Resminostat] (top concentration 10000 nM),selective drug sensitivity score,380,7.44
same,selective drug sensitivity score,697,7.74
same,selective drug sensitivity score,ALL-SIL,6.64
same,selective drug sensitivity score,CCRF-CEM,3.74
same,selective drug sensitivity score,COG-LL-319h,12.2
same,selective drug sensitivity score,COG-LL-332h,1.34
same,selective drug sensitivity score,HAL-01,1.84
same,selective drug sensitivity score,HPB-ALL,6.24
same,selective drug sensitivity score,JURKAT,1.34
same,selective drug sensitivity score,KARPAS-45,8.34
same,selective drug sensitivity score,KASUMI-10,5.94
same,selective drug sensitivity score,KASUMI-2,11.7
same,selective drug sensitivity score,KOPN-8,10.1
same,selective drug sensitivity score,MHH-CALL-2,8.14
same,selective drug sensitivity score,MHH-CALL-4,7.04
same,selective drug sensitivity score,MOLT-14,9.74
same,selective drug sensitivity score,NALL-1,-4.46
same,selective drug sensitivity score,NALM-6,1.34
same,selective drug sensitivity score,P12-ICHIKAWA,7.34
same,selective drug sensitivity score,PF-382,2.64
COc1cc(OC)c(/C=C/S(=O)(=O)Cc2ccc(OC)c(NCC(=O)O)c2)c(OC)c1 [Rigosertib] (top concentration 10000 nM),selective drug sensitivity score,380,14.3
same,selective drug sensitivity score,697,17
same,selective drug sensitivity score,ALL-SIL,13.1
same,selective drug sensitivity score,CCRF-CEM,14.4
same,selective drug sensitivity score,COG-LL-319h,4.96
same,selective drug sensitivity score,COG-LL-332h,15.8
same,selective drug sensitivity score,HAL-01,14.5
same,selective drug sensitivity score,HPB-ALL,13.5
same,selective drug sensitivity score,JURKAT,14.4
same,selective drug sensitivity score,KARPAS-45,15.2
same,selective drug sensitivity score,KASUMI-10,12
same,selective drug sensitivity score,KASUMI-2,14.6
same,selective drug sensitivity score,KOPN-8,18.4
same,selective drug sensitivity score,MHH-CALL-2,15.2
same,selective drug sensitivity score,MHH-CALL-4,8.26
same,selective drug sensitivity score,MOLT-14,17.9
same,selective drug sensitivity score,NALL-1,16.5
same,selective drug sensitivity score,NALM-6,16.1
same,selective drug sensitivity score,P12-ICHIKAWA,10.4
same,selective drug sensitivity score,PF-382,10.9
Cc1c(-c2ccc(N3CCc4cccc(C(=O)Nc5nc6ccccc6s5)c4C3)nc2C(=O)O)cnn1CC12CC3CC(CC(C3)C1)C2 (top concentration 1000 nM),selective drug sensitivity score,380,3.94
same,selective drug sensitivity score,697,-1.76
same,selective drug sensitivity score,ALL-SIL,25.1
same,selective drug sensitivity score,CCRF-CEM,18.6
same,selective drug sensitivity score,COG-LL-319h,19.4
same,selective drug sensitivity score,COG-LL-332h,9.14
same,selective drug sensitivity score,HAL-01,-1.86
same,selective drug sensitivity score,HPB-ALL,25.5
same,selective drug sensitivity score,JURKAT,7.34
same,selective drug sensitivity score,KARPAS-45,23.8
same,selective drug sensitivity score,KASUMI-10,3.04
same,selective drug sensitivity score,KASUMI-2,1.04
same,selective drug sensitivity score,KOPN-8,0.74
same,selective drug sensitivity score,MHH-CALL-2,-1.26
same,selective drug sensitivity score,MHH-CALL-4,2.24
same,selective drug sensitivity score,MOLT-14,6.34
same,selective drug sensitivity score,NALL-1,0.14
same,selective drug sensitivity score,NALM-6,5.84
same,selective drug sensitivity score,P12-ICHIKAWA,27.7
same,selective drug sensitivity score,PF-382,12.5
Cc1cc(Nc2cc(CN3CCOCC3)c3nc(C)c(Cc4ccc(Cl)cc4F)n3n2)n[nH]1 [Gandotinib] (top concentration 10000 nM),selective drug sensitivity score,380,-8.02
same,selective drug sensitivity score,697,5.28
same,selective drug sensitivity score,ALL-SIL,9.08
same,selective drug sensitivity score,CCRF-CEM,5.68
same,selective drug sensitivity score,COG-LL-319h,8.68
same,selective drug sensitivity score,COG-LL-332h,2.18
same,selective drug sensitivity score,HAL-01,4.68
same,selective drug sensitivity score,HPB-ALL,1.58
same,selective drug sensitivity score,JURKAT,3.98
same,selective drug sensitivity score,KARPAS-45,9.48
same,selective drug sensitivity score,KASUMI-10,7.28
same,selective drug sensitivity score,KASUMI-2,7.18
same,selective drug sensitivity score,KOPN-8,8.28
same,selective drug sensitivity score,MHH-CALL-2,7.48
same,selective drug sensitivity score,MHH-CALL-4,4.78
same,selective drug sensitivity score,MOLT-14,3.18
same,selective drug sensitivity score,NALL-1,4.88
same,selective drug sensitivity score,NALM-6,4.58
same,selective drug sensitivity score,P12-ICHIKAWA,-0.62
same,selective drug sensitivity score,PF-382,1.88
O=C(c1cccc(Cl)c1F)N1CCN(Cc2cccc(Nc3nccs3)n2)CC1 [MK-8745] (top concentration 10000 nM),selective drug sensitivity score,380,18.3
same,selective drug sensitivity score,697,8.9
same,selective drug sensitivity score,ALL-SIL,11.8
same,selective drug sensitivity score,CCRF-CEM,12.1
same,selective drug sensitivity score,COG-LL-319h,14.3
same,selective drug sensitivity score,COG-LL-332h,14
same,selective drug sensitivity score,HAL-01,7
same,selective drug sensitivity score,HPB-ALL,7
same,selective drug sensitivity score,JURKAT,9.8
same,selective drug sensitivity score,KARPAS-45,23.8
same,selective drug sensitivity score,KASUMI-10,11.2
same,selective drug sensitivity score,KASUMI-2,6.8
same,selective drug sensitivity score,KOPN-8,13.2
same,selective drug sensitivity score,MHH-CALL-2,12.2
same,selective drug sensitivity score,MHH-CALL-4,4.5
same,selective drug sensitivity score,MOLT-14,7.8
same,selective drug sensitivity score,NALL-1,12.4
same,selective drug sensitivity score,NALM-6,9.6
same,selective drug sensitivity score,P12-ICHIKAWA,11.3
same,selective drug sensitivity score,PF-382,8.5
Nc1nccc(-c2c(-c3ccc(F)cc3)ncn2C2CCCCC2)n1 (top concentration 10000 nM),selective drug sensitivity score,380,1.4
same,selective drug sensitivity score,697,4.8
same,selective drug sensitivity score,ALL-SIL,1.5
same,selective drug sensitivity score,CCRF-CEM,0.7
same,selective drug sensitivity score,COG-LL-319h,2.5
same,selective drug sensitivity score,COG-LL-332h,3.1
same,selective drug sensitivity score,HAL-01,1
same,selective drug sensitivity score,HPB-ALL,0.4
same,selective drug sensitivity score,JURKAT,0.1
same,selective drug sensitivity score,KARPAS-45,0.6
same,selective drug sensitivity score,KASUMI-10,2.5
same,selective drug sensitivity score,KASUMI-2,12.6
same,selective drug sensitivity score,KOPN-8,9.2
same,selective drug sensitivity score,MHH-CALL-2,4.1
same,selective drug sensitivity score,MHH-CALL-4,0
same,selective drug sensitivity score,MOLT-14,0
same,selective drug sensitivity score,NALL-1,0.1
same,selective drug sensitivity score,NALM-6,0
same,selective drug sensitivity score,P12-ICHIKAWA,0.1
same,selective drug sensitivity score,PF-382,0.8
COc1nc(N)nc2c1ncn2[C@@H]1O[C@H](CO)[C@@H](O)[C@@H]1O [Nelarabine] (top concentration 10000 nM),selective drug sensitivity score,380,-6.32
same,selective drug sensitivity score,697,1.58
same,selective drug sensitivity score,ALL-SIL,-2.82
same,selective drug sensitivity score,CCRF-CEM,4.18
same,selective drug sensitivity score,COG-LL-319h,4.78
same,selective drug sensitivity score,COG-LL-332h,2.78
same,selective drug sensitivity score,HAL-01,-5.82
same,selective drug sensitivity score,HPB-ALL,-2.22
same,selective drug sensitivity score,JURKAT,-0.12
same,selective drug sensitivity score,KARPAS-45,-9.92
same,selective drug sensitivity score,KASUMI-10,-5.82
same,selective drug sensitivity score,KASUMI-2,-10.2
same,selective drug sensitivity score,KOPN-8,-7.82
same,selective drug sensitivity score,MHH-CALL-2,-4.22
same,selective drug sensitivity score,MHH-CALL-4,-3.12
same,selective drug sensitivity score,MOLT-14,8.78
same,selective drug sensitivity score,NALL-1,-10.2
same,selective drug sensitivity score,NALM-6,-4.82
same,selective drug sensitivity score,P12-ICHIKAWA,4.68
same,selective drug sensitivity score,PF-382,-1.62
Cc1ccc(NC(=O)c2ccc(CN3CCN(C)CC3)cc2)cc1Nc1nc(-c2cccnc2)cs1 [Masitinib] (top concentration 10000 nM),selective drug sensitivity score,380,-4.38
same,selective drug sensitivity score,697,1.32
same,selective drug sensitivity score,ALL-SIL,11.6
same,selective drug sensitivity score,CCRF-CEM,2.42
same,selective drug sensitivity score,COG-LL-319h,-3.88
same,selective drug sensitivity score,COG-LL-332h,5.52
same,selective drug sensitivity score,HAL-01,0.72
same,selective drug sensitivity score,HPB-ALL,-4.18
same,selective drug sensitivity score,JURKAT,0.92
same,selective drug sensitivity score,KARPAS-45,3.22
same,selective drug sensitivity score,KASUMI-10,-3.48
same,selective drug sensitivity score,KASUMI-2,-4.38
same,selective drug sensitivity score,KOPN-8,-1.58
same,selective drug sensitivity score,MHH-CALL-2,-1.68
same,selective drug sensitivity score,MHH-CALL-4,-4.38
same,selective drug sensitivity score,MOLT-14,1.12
same,selective drug sensitivity score,NALL-1,-4.38
same,selective drug sensitivity score,NALM-6,0.32
same,selective drug sensitivity score,P12-ICHIKAWA,0.32
same,selective drug sensitivity score,PF-382,1.42
CNC(=O)c1ccccc1Nc1cc(Nc2ccc(N3CCOCC3)cc2OC)ncc1C(F)(F)F [VS-4718] (top concentration 10000 nM),selective drug sensitivity score,380,-5
same,selective drug sensitivity score,697,0.7
same,selective drug sensitivity score,ALL-SIL,4.3
same,selective drug sensitivity score,CCRF-CEM,2
same,selective drug sensitivity score,COG-LL-319h,-5
same,selective drug sensitivity score,COG-LL-332h,-0.3
same,selective drug sensitivity score,HAL-01,8.7
same,selective drug sensitivity score,HPB-ALL,1.7
same,selective drug sensitivity score,JURKAT,1.1
same,selective drug sensitivity score,KARPAS-45,7.1
same,selective drug sensitivity score,KASUMI-10,11.2
same,selective drug sensitivity score,KASUMI-2,-5
same,selective drug sensitivity score,KOPN-8,-3.1
same,selective drug sensitivity score,MHH-CALL-2,8.9
same,selective drug sensitivity score,MHH-CALL-4,6.4
same,selective drug sensitivity score,MOLT-14,1.1
same,selective drug sensitivity score,NALL-1,8.7
same,selective drug sensitivity score,NALM-6,0.4
same,selective drug sensitivity score,P12-ICHIKAWA,1.7
same,selective drug sensitivity score,PF-382,-0.3

# From the supplement of paper PMC8967900
